Assay results as given in patent US9283222B2 (priority 2006, dated 2016).
pKi: −log10 of the molar value.

Biological target: Recombinant Human Poly(ADP-Ribose) Polymerase (PARP), PARP-1 (Homo sapiens (Human), UniProt P09874)
Conditions: read-out: PARP-1 (Ki); Table 1; text calls the values EC50s
Method: Nicotinamide[2,5′,8-3H]adenine dinucleotide and strepavidin SPA beads were purchased from Amersham Biosiences. […] NAD^+, histone, aminobenzamide, 3-amino benzamide and Calf Thymus DNA (dcDNA) were purchased from Sigma. Stem loop oligonucleotide containing MCAT sequence was obtained from Qiagen. The oligos were dissolved to 1 mM in annealing buffer containing 10 mM Tris HCl pH 7.5, 1 mM EDTA, and 50 mM NaCl, incubated for 5 minutes at 95° C., and annealed at 45° C. for 45 minutes. […] Biotinylated histone H1 was prepared by treating the protein with Sulfo-NHS-LC-Biotin from Pierce. The biotinylation reaction was conducted by slowly and intermittently adding 3 equivalents of 10 mM Sulfo-NHS-LC-Biotin to 100 μM Histone H1 in phosphate-buffered saline, pH 7.5, at 4° C. with gentle vortexing over 1 minute followed by subsequent 4° C. incubation for 1 hour. Streptavidin coated (FlashPlate Plus) microplates were purchased from Perkin Elmer.
PARP1 assay was conducted in PARP assay buffer containing 50 mM Tris pH 8.0, 1 mM DTT, 4 mM MgCl2. […] Auto reactions utilizing SPA bead-based detection were carried out in 100 μL volumes in white 96 well plates.

Recombinant Human Poly(ADP-Ribose) Polymerase (PARP), PARP-1, sequence (P09874 whole entry): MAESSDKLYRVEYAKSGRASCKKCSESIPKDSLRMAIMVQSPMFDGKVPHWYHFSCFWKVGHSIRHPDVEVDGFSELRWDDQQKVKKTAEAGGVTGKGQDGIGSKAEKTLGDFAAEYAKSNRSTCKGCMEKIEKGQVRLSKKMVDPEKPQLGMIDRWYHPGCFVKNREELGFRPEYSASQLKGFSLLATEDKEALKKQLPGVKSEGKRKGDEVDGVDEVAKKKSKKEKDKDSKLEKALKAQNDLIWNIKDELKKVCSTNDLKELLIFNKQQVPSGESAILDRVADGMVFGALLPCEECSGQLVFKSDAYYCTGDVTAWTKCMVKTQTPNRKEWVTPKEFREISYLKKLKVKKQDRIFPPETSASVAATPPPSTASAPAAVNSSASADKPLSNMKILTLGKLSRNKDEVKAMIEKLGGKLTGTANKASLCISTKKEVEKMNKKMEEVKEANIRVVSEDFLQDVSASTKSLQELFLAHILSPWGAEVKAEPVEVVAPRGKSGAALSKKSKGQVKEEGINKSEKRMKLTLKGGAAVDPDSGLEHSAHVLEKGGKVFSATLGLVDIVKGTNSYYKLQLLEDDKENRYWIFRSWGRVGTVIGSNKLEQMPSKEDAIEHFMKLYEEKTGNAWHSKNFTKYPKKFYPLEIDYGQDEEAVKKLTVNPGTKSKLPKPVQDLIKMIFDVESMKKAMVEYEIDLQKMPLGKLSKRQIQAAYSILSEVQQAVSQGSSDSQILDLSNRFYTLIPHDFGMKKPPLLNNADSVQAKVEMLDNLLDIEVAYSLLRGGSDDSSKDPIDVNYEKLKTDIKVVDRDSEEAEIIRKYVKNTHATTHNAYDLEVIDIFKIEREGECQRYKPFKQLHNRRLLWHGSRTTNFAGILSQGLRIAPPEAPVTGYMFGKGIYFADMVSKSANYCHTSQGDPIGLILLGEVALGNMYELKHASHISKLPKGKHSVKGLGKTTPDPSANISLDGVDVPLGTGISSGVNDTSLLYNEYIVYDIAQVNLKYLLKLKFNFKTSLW

pKi	SMILES
6.68	O=C(c1cccc(-c2cc(Cc3n[nH]c(=O)c4c3CCCC4)ccc2F)c1)N1CCCC1 [Example 250, 4-((6-fluoro-3′-(pyrrolidin-1-ylcarbonyl)-1,1′-biphenyl-3-yl)methyl)-5,6,7,8-tetrahydrophthalazin-1(2H)-one]
7.04	O=C(Nc1cccc(Cc2n[nH]c(=O)c3c2CCCC3)c1)c1cc(Br)ccc1Cl [Example 243, 5-bromo-2-chloro-N-(3-((4-oxo-3,4,5,6,7,8-hexahydrophthalazin-1-yl)methyl)phenyl)benzamide]
6.47	COc1cc(NC(=O)c2cccc(Cc3n[nH]c(=O)c4c3CCCC4)c2)cc(C(F)(F)F)c1 [Example 347, N-(3-methoxy-5-(trifluoromethyl)phenyl)-3-((4-oxo-3,4,5,6,7,8-hexahydrophthalazin-1-yl)methyl)benzamide]
8.85	O=C(c1cnccn1)N1CCN(C(=O)c2cc(Cc3n[nH]c(=O)c4c3CCCC4)ccc2F)CC1 [Example 679, 4-(4-fluoro-3-{[4-(pyrazin-2-ylcarbonyl)piperazin-1-yl]carbonyl}benzyl)-5,6,7,8-tetrahydrophthalazin-1(2H)-one]
8.30	O=C(c1cc(Cc2n[nH]c(=O)c3c2CCCC3)ccc1F)N1CCN(c2ccccc2Cl)CC1 [Example 517, 4-(3-{[4-(2-chlorophenyl)piperazin-1-yl]carbonyl}-4-fluorobenzyl)-5,6,7,8-tetrahydrophthalazin-1(2H)-one]
7.64	O=C(NCC1CCNCC1)c1cccc(Cc2n[nH]c(=O)c3c2CCCC3)c1 [Example 63, 3-((4-oxo-3,4,5,6,7,8-hexahydrophthalazin-1-yl)methyl)-N-(piperidin-4-ylmethyl)benzamide]
6.90	COc1ccc(OC)c(CCC(=O)Nc2cccc(Cc3n[nH]c(=O)c4c3CCCC4)c2)c1 [Example 144, 3-(2,5-dimethoxyphenyl)-N-(3-((4-oxo-3,4,5,6,7,8-hexahydrophthalazin-1-yl)methyl)phenyl)propanamide]
7.03	CSc1cccc(NC(=O)c2cccc(Cc3n[nH]c(=O)c4c3CCCC4)c2)c1 [Example 360, N-(3-(methylthio)phenyl)-3-((4-oxo-3,4,5,6,7,8-hexahydrophthalazin-1-yl)methyl)benzamide]
7.55	Cc1ccc(CCNC(=O)c2cccc(Cc3n[nH]c(=O)c4c3CCCC4)c2)cc1 [Example 378, N-(2-(4-methylphenyl)ethyl)-3-((4-oxo-3,4,5,6,7,8-hexahydrophthalazin-1-yl)methyl)benzamide]
6.27	CO[C@@H](C(=O)Nc1cccc(Cc2n[nH]c(=O)c3c2CCCC3)c1)c1ccccc1 [Example 151, (2R)-2-methoxy-N-(3-((4-oxo-3,4,5,6,7,8-hexahydrophthalazin-1-yl)methyl)phenyl)-2-phenylacetamide]
7.17	O=C(NCCc1ccncc1)c1cccc(Cc2n[nH]c(=O)c3c2CCCC3)c1 [Example 381, 3-((4-oxo-3,4,5,6,7,8-hexahydrophthalazin-1-yl)methyl)-N-(2-pyridin-4-ylethyl)benzamide]
8.85	O=C(c1ccncc1)N1CCN(C(=O)c2cc(Cc3n[nH]c(=O)c4c3CCCC4)ccc2F)CC1 [Example 720, 4-{4-fluoro-3-[(4-isonicotinoylpiperazin-1-yl)carbonyl]benzyl}-5,6,7,8-tetrahydrophthalazin-1(2H)-one]
8.40	CN(C(=O)c1cc(Cc2n[nH]c(=O)c3c2NCCC3)ccc1F)C1CCN(C(=O)c2ccco2)CC1 [Example 715, 2-fluoro-N-[1-(2-furoyl)piperidin-4-yl]-N-methyl-5-[(5-oxo-1,2,3,4,5,6-hexahydropyrido[2,3-d]pyridazin-8-yl)methyl]benzamide]
7.59	O=C(NCc1ccsc1)c1cccc(Cc2n[nH]c(=O)c3c2CCCC3)c1 [Example 310, 3-((4-oxo-3,4,5,6,7,8-hexahydrophthalazin-1-yl)methyl)-N-(thien-3-ylmethyl)benzamide]
8.30	O=C(NC1CNC1)c1cccc(Cc2n[nH]c(=O)c3c2CCCC3)c1 [Example 56, N-azetidin-3-yl-3-((4-oxo-3,4,5,6,7,8-hexahydrophthalazin-1-yl)methyl)benzamide]
